# Earlier results as cited in paper PMC12491383, “Organ and tumour dosimetry of ^177Lu-rhPSMA-10.1, a novel PSMA-targeted therapy: results from a Phase I trial” (European Journal of Nuclear Medicine and Molecular Imaging, 2025).
# Tests used:
# [1] = parameters: method as in PMID 34887335; conditions: reported data; cited from earlier work
# [2] = parameters: method as in PMID 38050121; conditions: cited from earlier work
structure (smiles),measurement,setting,value
"O=C([O-])CN1CCN(CC(=O)[O-])CCN(CC(=O)NCC2CCC(C(=O)N[C@@H](Cc3ccc4ccccc4c3)C(=O)NCCCC[C@H](NC(=O)N[C@@H](CCC(=O)O)C(=O)O)C(=O)O)CC2)CCN(CC(=O)[O-])CC1.[177Lu+3] (stereo partly shown) [^177Lu-PSMA-617, lutetium Lu 177 vipivotide tetraxetan]",Tumour effective half-life,[1],61 h
same,Absorbed dose to the bone marrow,[2]; VISION dosimetry substudy,0.035 Gy/GBq
same,Absorbed dose in the salivary glands,[2]; VISION substudy,0.63 Gy/GBq
same,Absorbed dose in the kidneys,[2]; dosimetry substudy of the Phase III VISION trial,0.43 Gy/GBq
